Where two headings read alike, the source gives them in different places.
Columns and labels:
[1] = target: T1, canonical CBRs stably expressed in CHO-hCB2 (Homo sapiens, UniProt P34972); experiment: [^35S]GTPγS binding, CHO-hCB2 homogenates; type: biochemical; conditions: 10 μM
T1 construct: expressed in transfected cells
Method: (§1) Non-specific binding was defined as radioactivity remaining in the presence of 10 μM of non-radioactive GTPγS and subtracted from total binding to determine specific [^35S]GTPγS binding. All binding reactions were conducted in triplicate, in a final volume of 1 mL, and, following mixing, were incubated for 30 min at 30 °C. After incubation, reactions were terminated by rapid vacuum filtration through Whatman GF/B glass fiber filters (Brandel; Gaithersburg, MD, USA), followed by three washes of 4 mls of ice-cold filtration buffer (50 mM Tris, pH 7.4, and 0.05% bovine serum albumin). Samples were punched out from filter papers into scintillation vials, to which 4 mls of ScintiverseTM-BDR cocktail scintillation fluid (Fisher Scientific; Hampton, NH, USA) was added. Filters were incubated at room temperature for 24 h in scintillation fluid, vortexed, and radioactivity (measured as DPMs) was determined via a liquid scintillation spectrophotometer (Tri Carb 2100 TR Liquid Scintillation Analyzer, Packard Instruments, Meriden, CT, USA).

[2] = target: T1, canonical CBRs stably expressed in CHO-hCB2; experiment: Adenylyl cyclase modulation in whole CHO-hCB2 cells; type: cell-based; conditions: 10 μM
Method: Growth media contained FetalPlex (10%) and 1% pennicillin/streptomycin. Cells were cultured overnight in a humidified incubator maintained at 37 °C with 5% CO2. For some experiments, a subset of wells were treated overnight with pertussis toxin (2 μL/mL) to abolish Gi/Go protein-mediated signaling. […] After [^3H]adenine incubation, media was replaced with 0.5 mL of a Krebs–Ringer–HEPES solution (10 mM HEPES, 110 mM NaCl, 25 mM Glucose, 55 mM Sucrose, 5 mM KCl, 1 mM MgCl2, and 1.8 mM CaCl2 at pH 7.4) containing 0.5 mM IBMX, 10 μM forskolin and a receptor-saturating concentration (10^−5 M) of cannabinoid ligands to be examined. Plates were then floated in a 37 °C water bath for 15 min, followed by termination of reactions by addition of 50 μL of 2.2 N HCl to each well. Then, [^3H]cAMP was isolated by alumina column chromatography and collection in a 4 mL elution volume. Finally, 10 mL of Scintiverse^TM BD Cocktail scintillation fluid (Fisher Scientific; Hampton, NH, USA) was added to eluates and radioactivity (quantified as DPMs) was quantified via a liquid scintillation spectrophotometer (Tri Carb 2100 TR Liquid Scintillation Analyzer, Packard Instruments, Meriden, CT, USA).

[3] = system: DU-145 cells; experiment: Mitochondrial membrane potential (JC-1 staining), DU-145 cells; type: cell-based, human; conditions: 24 h; for mitochondrial membrane potential (MMP) depolarization: JC-1
[4] = system: CBRs expressed in PC-3 membranes; experiment: [^3H]WIN-55,212-2 competitive binding screen, PC-3 membranes; set-up: species or system human
Method: as §1, with “The assay” for “Non-specific binding”, “conducted” for “defined”, “previously detailed. […]” for “radioactivity remaining in the presence of 10 μM of non-radioactive GTPγS and subtracted from total binding to determine specific [^35S]GTPγS binding.”, “20” for “30”, “in a 37 °C water bath to achieve equilibrium.” for “at 30 °C.”, “quantified” for “determined”
(§2) These experiments were conducted to screen well-characterized cannabinoid ligands with high affinity for canonical CB1 and/or CB2Rs for binding to CBRs expressed in prostate cancer cells lines, as detailed in [33]. […] All binding reactions were conducted in triplicate, in a final volume of 1 mL, and, following mixing, were incubated for 20 min in a 37 °C water bath to achieve equilibrium. After incubation, reactions were terminated by rapid vacuum filtration and processed for radioactivity, as detailed in Section 4.5.1.

[5] = system: DU-145 cells; experiment: LDH cytotoxicity, DU-145 cells; type: cell-based, human; conditions: 24 h
Method: DU-145 cells were seeded at a density of 130 × 10^3 cells/well in 6-well plates and maintained in an incubator at 37 °C with 5% CO2 for 24 h. […] Treated cells were incubated for an additional 24 h, followed by quantification of LDH release. LDH released from damaged or dying cells oxidizes lactate to produce NADH which then reacts with a water-soluble tetrazolium salt (WST) reagent to produce a yellow-colored product. The intensity of the yellow-colored product was detected with an OD reading at 450 nm (quantified by a BioTek microplate reader interfaced with SoftMax Pro 5.4.5 software; Winooski, VT, USA) and was directly proportional to the amount of LDH released. Percent cytotoxicity was calculated according to the manufacturer’s protocol as the following: % Cytotoxicity=OD450 Supernatant/Supernatant+Lysate

[6] = system: DU-145 cells; experiment: ATP-dependent cell viability, DU-145 cells; type: cell-based, human; conditions: co-incubation with 10 μM ligand, 24 h
Method: Adenosine 5′-triphosphate (ATP) levels were quantified as a measure of DU-145 cell viability in response to cannabinoid treatement using an ATP-luciferase-based bioluminescence assay kit (CellTiter-Glo®, Sigma, MO, USA) and BioTek microplate reader (Winooski, VT, USA). DU-145 cells were seeded at a density of 8 × 10^3 cells/well in a 96-well plate and incubated for 24 h at 37 °C with 5% CO2. The next day, cells were treated with either vehicle or experimental drugs (10 or 50 μM) and incubated for another 24 h at 37 °C with 5% CO2. ATP levels were assessed following incubation by interpolation from an ATP standard curve according to the manufacturer’s protocol, as described previously.

[7] = system: CBRs expressed in DU-145 membranes; type: binding, human
Method: as §1, with “The assay” for “Non-specific binding”, “conducted” for “defined”, “previously detailed. […]” for “radioactivity remaining in the presence of 10 μM of non-radioactive GTPγS and subtracted from total binding to determine specific [^35S]GTPγS binding.”, “20” for “30”, “in a 37 °C water bath to achieve equilibrium.” for “at 30 °C.”, “quantified” for “determined”
as §2

[8] = system: CBRs expressed in C6-glioma cells; experiment: [^3H]WIN-55,212-2 competitive binding screen, C6-glioma membranes; set-up: species or system mouse; conditions: 1 μM ligand, 1 nM radioligand
Method: as §1, with “The assay” for “Non-specific binding”, “conducted” for “defined”, “previously detailed. […]” for “radioactivity remaining in the presence of 10 μM of non-radioactive GTPγS and subtracted from total binding to determine specific [^35S]GTPγS binding.”, “20” for “30”, “in a 37 °C water bath to achieve equilibrium.” for “at 30 °C.”, “quantified” for “determined”

[9] = system: canonical human CB2Rs (CHO-hCB2); set-up: method as in PMID 34592231; conditions: 1 μM ligand, 1 nM radioligand, CHO-hCB2 membranes; cited from earlier work
[10] = system: CBRs expressed in HeLa cells; experiment: [^3H]WIN-55,212-2 competitive binding screen, HeLa membranes; set-up: species or system human; conditions: 1 μM ligand, 1 nM radioligand
Method: as §1, with “The assay” for “Non-specific binding”, “conducted” for “defined”, “previously detailed. […]” for “radioactivity remaining in the presence of 10 μM of non-radioactive GTPγS and subtracted from total binding to determine specific [^35S]GTPγS binding.”, “20” for “30”, “in a 37 °C water bath to achieve equilibrium.” for “at 30 °C.”, “quantified” for “determined”

[11] = system: CBRs expressed in HeLa cells; experiment: [^3H]CP-55,940 competitive binding screen, HeLa membranes; set-up: species or system human; conditions: 1 μM ligand, 0.2 nM radioligand
Method: as §1, with “The assay” for “Non-specific binding”, “conducted” for “defined”, “previously detailed. […]” for “radioactivity remaining in the presence of 10 μM of non-radioactive GTPγS and subtracted from total binding to determine specific [^35S]GTPγS binding.”, “20” for “30”, “in a 37 °C water bath to achieve equilibrium.” for “at 30 °C.”, “quantified” for “determined”

[12] = target: T2, canonical mouse CB1Rs (mouse brain) (Mus musculus, UniProt P47746); type: binding; conditions: 1 μM ligand, mouse brain membranes
T2 construct: membranes prepared from mouse brain containing a high density of mouse CB1 receptors (mCB1); from tissue; host or cells: mouse brain membrane homogenate
T2 sequence (P47746 whole entry): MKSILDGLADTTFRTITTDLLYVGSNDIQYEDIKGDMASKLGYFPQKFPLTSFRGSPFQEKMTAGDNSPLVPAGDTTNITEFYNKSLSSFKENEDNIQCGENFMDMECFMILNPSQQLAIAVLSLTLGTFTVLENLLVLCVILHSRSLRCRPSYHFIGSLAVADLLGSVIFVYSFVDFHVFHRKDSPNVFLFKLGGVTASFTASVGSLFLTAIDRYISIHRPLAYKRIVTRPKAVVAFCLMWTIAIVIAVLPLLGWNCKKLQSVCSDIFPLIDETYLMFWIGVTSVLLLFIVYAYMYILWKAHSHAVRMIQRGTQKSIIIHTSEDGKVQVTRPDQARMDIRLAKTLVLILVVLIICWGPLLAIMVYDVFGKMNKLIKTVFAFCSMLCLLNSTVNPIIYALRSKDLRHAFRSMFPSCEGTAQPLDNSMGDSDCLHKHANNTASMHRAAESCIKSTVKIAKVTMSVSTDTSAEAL
Method: as §1, with “The assay” for “Non-specific binding”, “conducted” for “defined”, “previously detailed. […]” for “radioactivity remaining in the presence of 10 μM of non-radioactive GTPγS and subtracted from total binding to determine specific [^35S]GTPγS binding.”, “20” for “30”, “in a 37 °C water bath to achieve equilibrium.” for “at 30 °C.”, “quantified” for “determined”

[13] = system: canonical human CB2Rs (CHO-hCB2); set-up: method as in PMID 34592231; conditions: 1 μM ligand, 0.2 nM radioligand, CHO-hCB2 membranes; cited from earlier work
[14] = system: CBRs expressed in PC-3 cells; experiment: [^3H]CP-55,940 competitive binding screen, PC-3 membranes; set-up: species or system human; conditions: 1 μM ligand, 0.2 nM radioligand
Method: as §1, with “The assay” for “Non-specific binding”, “conducted” for “defined”, “previously detailed. […]” for “radioactivity remaining in the presence of 10 μM of non-radioactive GTPγS and subtracted from total binding to determine specific [^35S]GTPγS binding.”, “20” for “30”, “in a 37 °C water bath to achieve equilibrium.” for “at 30 °C.”, “quantified” for “determined”

[15] = system: CBRs expressed in PC-12 cells; experiment: [^3H]WIN-55,212-2 competitive binding screen, PC-12 membranes; set-up: species or system rat; conditions: 1 μM ligand, 1 nM radioligand
Method: as §1, with “The assay” for “Non-specific binding”, “conducted” for “defined”, “previously detailed. […]” for “radioactivity remaining in the presence of 10 μM of non-radioactive GTPγS and subtracted from total binding to determine specific [^35S]GTPγS binding.”, “20” for “30”, “in a 37 °C water bath to achieve equilibrium.” for “at 30 °C.”, “quantified” for “determined”

[16] = system: canonical human CB1Rs (CHO-hCB1); set-up: method as in PMID 34592231; conditions: 1 μM ligand, 0.2 nM radioligand, CHO-hCB1 membranes; cited from earlier work
[17] = system: canonical human CB1Rs (CHO-hCB1); set-up: method as in PMID 34592231; conditions: 1 μM ligand, 1 nM radioligand, CHO-hCB1 membranes; cited from earlier work
[18] = system: CBRs expressed in C6-glioma cells; experiment: [^3H]CP-55,940 competitive binding screen, C6-glioma membranes; set-up: species or system mouse; conditions: 1 μM ligand, 0.2 nM radioligand
Method: as §1, with “The assay” for “Non-specific binding”, “conducted” for “defined”, “previously detailed. […]” for “radioactivity remaining in the presence of 10 μM of non-radioactive GTPγS and subtracted from total binding to determine specific [^35S]GTPγS binding.”, “20” for “30”, “in a 37 °C water bath to achieve equilibrium.” for “at 30 °C.”, “quantified” for “determined”

[19] = system: CBRs expressed in PC-12 cells; experiment: [^3H]CP-55,940 competitive binding screen, PC-12 membranes; set-up: species or system rat; conditions: 1 μM ligand, 0.2 nM radioligand
Method: as §1, with “The assay” for “Non-specific binding”, “conducted” for “defined”, “previously detailed. […]” for “radioactivity remaining in the presence of 10 μM of non-radioactive GTPγS and subtracted from total binding to determine specific [^35S]GTPγS binding.”, “20” for “30”, “in a 37 °C water bath to achieve equilibrium.” for “at 30 °C.”, “quantified” for “determined”

[20] = system: CBRs expressed in DU-145 cells; experiment: [^3H]CP-55,940 competitive binding screen, DU-145 membranes; set-up: species or system human; conditions: 1 μM ligand, 0.2 nM radioligand
Method: as §1, with “The assay” for “Non-specific binding”, “conducted” for “defined”, “previously detailed. […]” for “radioactivity remaining in the presence of 10 μM of non-radioactive GTPγS and subtracted from total binding to determine specific [^35S]GTPγS binding.”, “20” for “30”, “in a 37 °C water bath to achieve equilibrium.” for “at 30 °C.”, “quantified” for “determined”

T1 sequence (P34972 whole entry): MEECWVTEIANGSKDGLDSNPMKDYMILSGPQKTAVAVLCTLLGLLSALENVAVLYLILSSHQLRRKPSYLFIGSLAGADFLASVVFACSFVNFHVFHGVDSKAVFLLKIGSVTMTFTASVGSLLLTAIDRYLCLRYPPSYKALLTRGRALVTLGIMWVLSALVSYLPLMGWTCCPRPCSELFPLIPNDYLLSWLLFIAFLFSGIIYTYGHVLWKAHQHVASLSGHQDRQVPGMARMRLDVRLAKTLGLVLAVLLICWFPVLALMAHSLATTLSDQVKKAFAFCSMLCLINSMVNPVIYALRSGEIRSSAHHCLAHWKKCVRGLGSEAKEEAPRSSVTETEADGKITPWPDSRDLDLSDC

COc1ccc(C(=O)c2c(C)n(CCN3CCOCC3)c3cc(I)ccc23)cc1 [AM-630]
decrease in basal G protein activity ([^35S]GTPγS binding) [1]: 26.15 ± 5.15%
enhancement of forskolin-stimulated intracellular cAMP levels [2]: 117 ± 27.1%
MMP on co-incubation with GW-405833 (10 μM) ([3]; 10 μM ligand co-incubated): MMP was not significantly reduced from vehicle-treated levels
mitochondrial membrane potential (MMP) depolarization ([3]; 10 μM): had no effect on MMP
mitochondrial membrane potential (MMP) depolarization ([3]; 50 μM): had no effect on MMP
displacement of [^3H]WIN-55,212-2 ([4]; 1 μM ligand, 1 nM radioligand, PC-3 membranes): failed to displace
LDH release ([5]; 10 μM): No significant effects
increase in LDH release ([5]; 50 μM): neither low (10 μM) nor high (50 μM) concentrations of WIN-55,212-2, AM-251 or AM-630 altered LDH release
attenuation of GW-405833 (50 μM)-induced LDH release ([5]; co-incubation with 10 μM ligand): significantly attenuated
attenuation of GW-405833 (50 μM)-induced reduction in ATP concentrations [6]: significantly attenuated
displacement of [^3H]WIN-55,212-2 [7]: failed to displace

CCCCCCC(C)(C)c1ccc([C@@H]2C[C@H](O)CC[C@H]2CCCO)c(O)c1 [CP-55,940]
displacement of [^3H]WIN-55,212-2 (Figure 1B) [8]: only WIN-55,212-2, and not CP-55,940, significantly displaced
displacement of [^3H]WIN-55,212-2 (Figure 1B) [9]: produced near or complete displacement
displacement of [^3H]WIN-55,212-2 (Figure 1B) [10]: only WIN-55,212-2, and not CP-55,940, significantly displaced
displacement of [^3H]CP-55,940 [11]: neither the non-selective CBR ligand CP-55,940 nor WIN-55,212-2 produced significant displacement
displacement of [^3H]CP-55,940 ([12]; 0.2 nM radioligand): produced near or complete displacement
displacement of [^3H]WIN-55,212-2 (Figure 1B) ([12]; 1 nM radioligand): produced near or complete displacement
displacement of [^3H]CP-55,940 [13]: produced near or complete displacement
displacement of [^3H]CP-55,940 [14]: neither the non-selective CBR ligand CP-55,940 nor WIN-55,212-2 produced significant displacement
displacement of [^3H]WIN-55,212-2 (Figure 1B) [15]: only WIN-55,212-2, and not CP-55,940, significantly displaced
displacement of [^3H]CP-55,940 [16]: produced near or complete displacement
displacement of [^3H]WIN-55,212-2 (Figure 1B) [17]: produced near or complete displacement
displacement of [^3H]CP-55,940 [18]: neither the non-selective CBR ligand CP-55,940 nor WIN-55,212-2 produced significant displacement
displacement of [^3H]WIN-55,212-2 [4]: only WIN-55,212-2, and not CP-55,940, significantly displaced
displacement of [^3H]CP-55,940 [19]: neither the non-selective CBR ligand CP-55,940 nor WIN-55,212-2 produced significant displacement
displacement of [^3H]CP-55,940 [20]: neither the non-selective CBR ligand CP-55,940 nor WIN-55,212-2 produced significant displacement
displacement of [^3H]WIN-55,212-2 [7]: only WIN-55,212-2, and not CP-55,940, significantly displaced

— PMC8954350, “Non-Canonical Cannabinoid Receptors with Distinct Binding and Signaling Properties in Prostate and Other Cancer Cell Types Mediate Cell Death” (International Journal of Molecular Sciences, 2022)
